The nature of the data set: Dissolution of apixaban in SLD coating solvent, monitored in situ by UV probe. The class given is physicochemical.

Structures are written as SMILES.

Procedure: Three aliquots of ethanol were dispensed. Apixaban was added to the first portion (1464 g) with stirring. This suspension was then added to a 20 L mixing vessel. To ensure complete API transfer, the remaining aliquots of ethanol (two aliquots of approximately 2600 g each) were used to rinse the suspension container surfaces and were subsequently added to the 20 L mixing vessel in step-wise fashion. The apixaban/ethanol solution was stirred using an overhead mixer at approximately 500 rpm for 50 minutes. Dissolution of apixaban in ethanol was monitored in-situ using a UV probe (absorbance range 278-282 nm, 2 mm tip opening, measure rate 1 s^−1).

As for `COc1ccc(-n2nc(C(N)=O)c3c2C(=O)N(c2ccc(N4CCCCC4=O)cc2)CC3)cc1` [apixaban, 1-(4-methoxyphenyl)-7-oxo-6-[4-(2-oxo-1-piperidinyl)phenyl]-4,5,6,7-tetrahydro-1H-pyrazolo[3,4-c]pyridine-3-carboxamide], the “Time to full dissolution of apixaban” value is, setting by setting: (ethanol, measured at 0.15 mgA/mL, UV 278-282 nm) “less than 10 minutes”; (ethanol/water/HPMC solution, apparent concentration 0.21 mgA/g, UV 280 nm) “less than 10 minutes”.

Source of the values: patent US11896586B2, “Apixaban formulations” (Bristol-Myers Squibb Company, priority 2018, dated 2024).
